Measured values from ChEMBL document CHEMBL4819054, “Rotenoids and Other Specialized Metabolites from the Roots of Mirabilis multiflora: Opioid and Cannabinoid Receptor Radioligand Binding Affinities” (J Nat Prod, 2021).
Active and inactive are the calls of the source. The calls are words filed in the database; no cut-off is given here.

Key:
Conditions in all cases: Membrane
[1] = target: Kappa-type opioid receptor (Homo sapiens) (UniProt P41145); experiment: Displacement of [3H]-U69593 from human kappa opioid receptor expressed in CHO-K1 cell membranes at 10 uM incubated for 60 mins by TopCount scintillation counting method relative to control
[2] = target: Cannabinoid receptor 1 (Homo sapiens) (UniProt P21554); experiment: Displacement of [3H]-CP-55,940 from full-length recombinant human CB1R expressed in CHO-K1 cell membranes at 10 uM incubated for 90 mins by TopCount scintillation counting method relative to control
[3] = target: Cannabinoid receptor 2 (Homo sapiens) (UniProt P34972); experiment: Displacement of [3H]-CP-55,940 from full-length recombinant human CB2R expressed in CHO-K1 cell membranes at 10 uM incubated for 90 mins by TopCount scintillation counting method relative to control
[4] = target: Delta-type opioid receptor (Homo sapiens) (UniProt P41143); experiment: Displacement of [3H]-DPDPE from human delta opioid receptor expressed in CHO-K1 cell membranes at 10 uM incubated for 60 mins by TopCount scintillation counting method relative to control
[5] = target: Mu-type opioid receptor (Homo sapiens) (UniProt P35372); experiment: Displacement of [3H]-DAMGO from human mu opioid receptor expressed in CHO-K1 cell membranes at 10 uM incubated for 60 mins by TopCount scintillation counting method relative to control
Chain of Mu-type opioid receptor (Homo sapiens) (P35372 whole entry): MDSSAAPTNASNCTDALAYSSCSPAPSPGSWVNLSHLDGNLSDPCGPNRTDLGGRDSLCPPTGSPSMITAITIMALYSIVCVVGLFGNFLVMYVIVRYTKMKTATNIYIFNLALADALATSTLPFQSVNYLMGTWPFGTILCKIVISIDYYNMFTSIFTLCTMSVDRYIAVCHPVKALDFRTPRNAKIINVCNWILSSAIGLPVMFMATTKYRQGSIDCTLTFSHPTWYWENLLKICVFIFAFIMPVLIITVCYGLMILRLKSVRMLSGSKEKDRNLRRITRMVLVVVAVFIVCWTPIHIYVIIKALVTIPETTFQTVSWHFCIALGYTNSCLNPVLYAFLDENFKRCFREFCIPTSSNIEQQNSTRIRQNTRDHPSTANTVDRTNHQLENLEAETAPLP

Chain of Kappa-type opioid receptor (Homo sapiens) (P41145 whole entry): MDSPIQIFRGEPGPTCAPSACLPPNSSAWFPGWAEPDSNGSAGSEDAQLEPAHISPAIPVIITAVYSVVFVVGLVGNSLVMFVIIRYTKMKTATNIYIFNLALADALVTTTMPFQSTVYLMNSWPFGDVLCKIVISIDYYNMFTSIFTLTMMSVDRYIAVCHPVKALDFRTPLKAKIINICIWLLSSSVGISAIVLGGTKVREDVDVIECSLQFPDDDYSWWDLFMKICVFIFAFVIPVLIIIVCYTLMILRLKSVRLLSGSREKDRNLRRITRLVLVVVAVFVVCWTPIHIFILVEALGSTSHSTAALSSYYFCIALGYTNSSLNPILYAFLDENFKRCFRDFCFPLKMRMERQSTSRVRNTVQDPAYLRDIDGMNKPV
Chain of Cannabinoid receptor 2 (Homo sapiens) (P34972 whole entry): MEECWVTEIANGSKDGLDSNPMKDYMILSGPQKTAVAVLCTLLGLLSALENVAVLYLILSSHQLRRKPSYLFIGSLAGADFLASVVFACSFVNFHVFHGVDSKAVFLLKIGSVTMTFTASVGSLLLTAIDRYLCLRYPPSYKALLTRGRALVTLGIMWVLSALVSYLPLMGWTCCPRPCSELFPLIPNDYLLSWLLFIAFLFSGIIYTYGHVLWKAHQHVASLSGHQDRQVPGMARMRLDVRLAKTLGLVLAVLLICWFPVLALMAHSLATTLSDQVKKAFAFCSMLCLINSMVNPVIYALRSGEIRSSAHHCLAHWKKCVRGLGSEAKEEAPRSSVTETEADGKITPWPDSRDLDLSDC
Chain of Delta-type opioid receptor (Homo sapiens) (P41143 whole entry): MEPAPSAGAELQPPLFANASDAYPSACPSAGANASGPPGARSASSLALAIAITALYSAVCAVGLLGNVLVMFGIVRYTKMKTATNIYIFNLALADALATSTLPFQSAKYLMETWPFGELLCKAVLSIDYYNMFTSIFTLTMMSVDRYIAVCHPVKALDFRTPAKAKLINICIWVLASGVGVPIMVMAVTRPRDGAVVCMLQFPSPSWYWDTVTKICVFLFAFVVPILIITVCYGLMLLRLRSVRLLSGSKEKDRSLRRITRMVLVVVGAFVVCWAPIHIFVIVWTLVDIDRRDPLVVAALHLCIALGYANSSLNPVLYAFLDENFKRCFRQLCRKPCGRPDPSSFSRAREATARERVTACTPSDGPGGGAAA
Chain of Cannabinoid receptor 1 (Homo sapiens) (P21554 whole entry): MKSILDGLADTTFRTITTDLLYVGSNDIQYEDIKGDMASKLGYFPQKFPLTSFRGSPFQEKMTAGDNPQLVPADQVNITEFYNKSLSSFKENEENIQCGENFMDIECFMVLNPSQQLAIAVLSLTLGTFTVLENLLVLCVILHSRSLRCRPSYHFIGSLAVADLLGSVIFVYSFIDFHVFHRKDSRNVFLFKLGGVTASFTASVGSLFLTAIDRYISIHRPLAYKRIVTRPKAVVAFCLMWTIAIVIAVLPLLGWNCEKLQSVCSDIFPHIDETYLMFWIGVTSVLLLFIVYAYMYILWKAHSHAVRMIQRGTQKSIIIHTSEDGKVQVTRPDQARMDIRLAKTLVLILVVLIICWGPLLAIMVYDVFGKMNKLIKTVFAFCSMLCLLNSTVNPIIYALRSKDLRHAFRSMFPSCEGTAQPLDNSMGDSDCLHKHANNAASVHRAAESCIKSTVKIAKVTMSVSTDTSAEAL

Row | Structure (SMILES) | Activity [1] | Activity [2] | Activity [3] | Activity [4] | Activity [5]
1 | COc1c(C)c(O)c2c(c1C)O[C@H]1COc3c(O)cccc3[C@]1(O)C2=O | 38.9% | inactive | inactive | 15.2% | 45.9%
2 | CO[C@@H]1Oc2ccccc2-c2c1oc1cc(O)c(C)c(O)c1c2=O | 48.8% | inactive | inactive | 24.5% | 64.5%
3 | COc1cc2c(c(O)c1C)C(=O)[C@@]1(O)c3cccc(O)c3OC[C@@H]1O2 | 21.8% | inactive | inactive | 26.3% | 50.9%
4 | COc1cc2c(c(O)c1C)C(=O)[C@@]1(O)c3cccc(O)c3O[C@@H](OC)[C@@H]1O2 | 28.9% | 42.2% | 7.4% | 20.1% | 39.6%
5 | COc1cc2c(c(O)c1C)C(=O)[C@@]1(O)c3cccc(OC)c3O[C@@H](OC)[C@@H]1O2 | 30.5% | inactive | 5.4% | 12.3% | 58.6%
6 | COc1c(C)c(O)c2c(c1C)O[C@H]1[C@H](OC)Oc3c(O)cccc3[C@]1(O)C2=O | 41.8% | 17% | inactive | 31.6% | 55.3%
